Molecular target: T1, transmembrane domain-deleted rat FAAH (ΔTM rFAAH) (Rattus norvegicus, UniProt P97612)
T1 sequence (P97612 30-579 limits assumed): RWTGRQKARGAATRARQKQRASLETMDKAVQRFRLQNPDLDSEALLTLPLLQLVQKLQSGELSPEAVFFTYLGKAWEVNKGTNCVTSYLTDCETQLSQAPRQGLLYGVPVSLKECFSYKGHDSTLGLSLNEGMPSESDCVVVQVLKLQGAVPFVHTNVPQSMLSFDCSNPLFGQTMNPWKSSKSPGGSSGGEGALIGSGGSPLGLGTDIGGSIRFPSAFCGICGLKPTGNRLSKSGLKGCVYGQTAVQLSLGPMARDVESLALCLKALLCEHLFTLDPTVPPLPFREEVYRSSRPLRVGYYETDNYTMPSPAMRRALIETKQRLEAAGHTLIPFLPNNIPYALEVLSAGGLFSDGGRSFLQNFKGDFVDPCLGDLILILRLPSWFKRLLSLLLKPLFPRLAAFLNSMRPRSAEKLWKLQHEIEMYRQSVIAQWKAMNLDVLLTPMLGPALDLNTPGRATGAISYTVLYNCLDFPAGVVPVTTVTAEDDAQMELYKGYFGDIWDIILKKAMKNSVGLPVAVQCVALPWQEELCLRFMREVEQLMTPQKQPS
Conditions: phenyl ring substitution of phenylheptyl template 11e

Row | Structure (SMILES) | increase in FAAH inhibitory potency relative to 11e
1 | O=S(=O)(F)CCCCCCCc1ccccc1OCc1ccccc1 [20c, 7-(2-Benzyloxyphenyl)heptanesulfonyl fluoride] | 9-10 fold
2 | O=S(=O)(F)CCCCCCCc1cccc(O)c1 [21b, 7-(3-Hydroxyphenyl)heptanesulfonyl fluoride] | 15- to 31 fold
3 | O=S(=O)(F)CCCCCCCc1ccccc1O [21c, 7-(2-Hydroxyphenyl)heptanesulfonyl fluoride] | 15- to 31 fold

Reference: article PMC3678964 (Journal of medicinal chemistry, 2012)
